Legend:
Hordeum vulgare [1] = assay: Phytotoxicity against Hordeum vulgare (barley) at 500 g a.i./ha applied post-emergence measured after 15 days; assay type: organism-based; settings: in vivo, other, 360 h
Setaria faberi [2] = assay: Post-emergence herbicidal activity against Setaria faberi (Giant Foxtail) at 500 g a.i./ha measured after 15 days; assay type: functional
Lolium perenne [3] = assay: Post-emergence herbicidal activity against Lolium perenne (perennial ryegrass) at 500 g a.i./ha measured after 15 days; assay type: functional
Avena fatua [4] = assay: Post-emergence herbicidal activity against Avena fatua at 500 g a.i./ha measured after 15 days; assay type: functional
Alopecurus myosuroides [5] = assay: Post-emergence herbicidal activity against Alopecurus myosuroides at 500 g a.i./ha measured after 15 days; assay type: functional
Triticum aestivum [6] = assay: Phytotoxicity against Triticum aestivum (wheat) at 500 g a.i./ha applied post-emergence measured after 15 days; assay type: organism-based; settings: in vivo, other, 360 h
Lolium perenne [7] = assay: Post-emergence herbicidal activity against Lolium perenne (perennial ryegrass) at 30 g a.i./ha measured after 21 days in presence of 1% Merge adjuvant; assay type: functional
Alopecurus myosuroides [8] = assay: Post-emergence herbicidal activity against Alopecurus myosuroides at 30 g a.i./ha measured after 21 days in presence of 1% Merge adjuvant; assay type: functional
Avena fatua [9] = assay: Post-emergence herbicidal activity against Avena fatua at 30 g a.i./ha measured after 21 days in presence of 1% Merge adjuvant; assay type: functional
Triticum aestivum [10] = assay: Phytotoxicity against Triticum aestivum (wheat) at 30 g a.i./ha applied post-emergence measured after 21 days in presence of 1% Merge adjuvant; assay type: organism-based; settings: in vivo, other, 504 h
Hordeum vulgare [11] = assay: Phytotoxicity against Hordeum vulgare (barley) at 30 g a.i./ha applied post-emergence measured after 21 days in presence of 1% Merge adjuvant; assay type: organism-based; settings: in vivo, other, 504 h
Setaria faberi [12] = assay: Post-emergence herbicidal activity against Setaria faberi (Giant Foxtail) at 30 g a.i./ha measured after 21 days in presence of 1% Merge adjuvant; assay type: functional
Setaria faberi [13] = assay: Post-emergence herbicidal activity against Setaria faberi (Giant Foxtail) at 250 g a.i./ha measured after 21 days in presence of 1% Merge adjuvant; assay type: functional
Lolium perenne [14] = assay: Post-emergence herbicidal activity against Lolium perenne (perennial ryegrass) at 250 g a.i./ha measured after 21 days in presence of 1% Merge adjuvant; assay type: functional
Alopecurus myosuroides [15] = assay: Post-emergence herbicidal activity against Alopecurus myosuroides at 250 g a.i./ha measured after 21 days in presence of 1% Merge adjuvant; assay type: functional
Triticum aestivum [16] = assay: Phytotoxicity against Triticum aestivum (wheat) at 250 g a.i./ha applied post-emergence measured after 21 days in presence of 1% Merge adjuvant; assay type: organism-based; settings: in vivo, other, 504 h
Hordeum vulgare [17] = assay: Phytotoxicity against Hordeum vulgare (barley) at 250 g a.i./ha applied post-emergence measured after 21 days in presence of 1% Merge adjuvant; assay type: organism-based; settings: in vivo, other, 504 h
Avena fatua [18] = assay: Post-emergence herbicidal activity against Avena fatua at 250 g a.i./ha measured after 21 days in presence of 1% Merge adjuvant; assay type: functional
Setaria faberi [19] = assay: Post-emergence herbicidal activity against Setaria faberi (Giant Foxtail) at 2000 g a.i./ha after 21 days; assay type: functional
Lolium perenne [20] = assay: Post-emergence herbicidal activity against Lolium perenne (perennial ryegrass) at 500 g a.i./ha after 21 days; assay type: functional
Lolium perenne [21] = assay: Post-emergence herbicidal activity against Lolium perenne (perennial ryegrass) at 2000 g a.i./ha after 21 days; assay type: functional
Avena fatua [22] = assay: Post-emergence herbicidal activity against Avena fatua at 500 g a.i./ha after 21 days; assay type: functional
Avena fatua [23] = assay: Post-emergence herbicidal activity against Avena fatua at 2000 g a.i./ha after 21 days; assay type: functional
Setaria faberi [24] = assay: Post-emergence herbicidal activity against Setaria faberi (Giant Foxtail) at 500 g a.i./ha after 21 days; assay type: functional

## Cc1cc(C)c(C2C(=O)N3CCC(C)CN3C2=O)c(C)c1 (stereo unspecified)
Hordeum vulgare [1]
  Activity: 90%
Setaria faberi [2]
  Activity: 50%
Lolium perenne [3]
  Activity: 90%
Avena fatua [4]
  Activity: 90%
Alopecurus myosuroides [5]
  Activity: 90%
Triticum aestivum [6]
  Activity: 50%

## Cc1cc(C)c(C2C(=O)N3CCCN3C2=O)c(C)c1
Hordeum vulgare [1]
  Activity: 40%
Setaria faberi [2]
  Activity: 40%
Lolium perenne [3]
  Activity: 80%
Avena fatua [4]
  Activity: 20%
Alopecurus myosuroides [5]
  Activity: 40%
Triticum aestivum [6]
  Activity: 0%

## CCc1cc(C)cc(CC)c1-c1c(OS(=O)(=O)N(C)C)n2n(c1=O)CCOCC2
Lolium perenne [7]
  Activity: 50%
Alopecurus myosuroides [8]
  Activity: 0%
Avena fatua [9]
  Activity: 10%
Triticum aestivum [10]
  Activity: 0%
Hordeum vulgare [11]
  Activity: 0%
Setaria faberi [12]
  Activity: 20%

## CCOc1c(-c2c(CC)cc(C)cc2CC)c(=O)n2n1CCOCC2
Lolium perenne [7]
  Activity: 20%
Alopecurus myosuroides [8]
  Activity: 0%
Avena fatua [9]
  Activity: 0%
Triticum aestivum [10]
  Activity: 0%
Hordeum vulgare [11]
  Activity: 0%
Setaria faberi [12]
  Activity: 0%

## Cc1cc(C)c(C2C(=O)N3CCCOCN3C2=O)c(C)c1 (stereo unspecified)
Setaria faberi [13]
  Activity: 50%
Lolium perenne [14]
  Activity: 20%
Alopecurus myosuroides [15]
  Activity: 0%
Triticum aestivum [16]
  Activity: 10%
Hordeum vulgare [17]
  Activity: 10%
Avena fatua [18]
  Activity: 0%

## Cc1cc(C)c(C2C(=O)N3CC[S+]([O-])CCN3C2=O)c(C)c1
Setaria faberi [19]
  Activity: 90%
Lolium perenne [20]
  Activity: 40%
Lolium perenne [21]
  Activity: 80%
Avena fatua [22]
  Activity: 40%
Avena fatua [23]
  Activity: 80%
Setaria faberi [24]
  Activity: 60%

## Cc1cc(C)c(-c2c(OC(=O)C(C)(C)C)n3n(c2=O)CCCCC3)c(C)c1
Setaria faberi [19]
  Activity: 90%
Lolium perenne [20]
  Activity: 80%
Lolium perenne [21]
  Activity: 100%
Avena fatua [22]
  Activity: 60%
Avena fatua [23]
  Activity: 90%
Setaria faberi [24]
  Activity: 90%

## Cc1cc(C)c(C2C(=O)N3CC(C)CN3C2=O)c(C)c1
Hordeum vulgare [1]
  Activity: 50%
Setaria faberi [2]
  Activity: 50%
Lolium perenne [3]
  Activity: 60%
Avena fatua [4]
  Activity: 90%
Alopecurus myosuroides [5]
  Activity: 50%
Triticum aestivum [6]
  Activity: 40%

## Cc1cc(C)c(-c2c(OC(=O)C(C)(C)C)n3n(c2=O)CC[S+]([O-])CC3)c(C)c1 (stereo unspecified)
Setaria faberi [19]
  Activity: 80%
Lolium perenne [20]
  Activity: 20%
Lolium perenne [21]
  Activity: 50%
Avena fatua [22]
  Activity: 20%
Avena fatua [23]
  Activity: 80%
Setaria faberi [24]
  Activity: 40%

## Cc1cc(C)c(C2C(=O)N3CCCCCN3C2=O)c(C)c1
Hordeum vulgare [1]
  Activity: 40%
Setaria faberi [19]
  Activity: 90%
Lolium perenne [20]
  Activity: 60%
Lolium perenne [21]
  Activity: 90%
Avena fatua [22]
  Activity: 50%
Avena fatua [23]
  Activity: 90%
Setaria faberi [2]
  Activity: 60%
Lolium perenne [3]
  Activity: 50%
Avena fatua [4]
  Activity: 90%
Alopecurus myosuroides [5]
  Activity: 50%
Triticum aestivum [6]
  Activity: 20%
Setaria faberi [24]
  Activity: 90%

## Cc1cc(C)c(C2C(=O)N3CCSCCN3C2=O)c(C)c1
Setaria faberi [19]
  Activity: 100%
Lolium perenne [20]
  Activity: 50%
Lolium perenne [21]
  Activity: 90%
Avena fatua [22]
  Activity: 60%
Avena fatua [23]
  Activity: 90%
Setaria faberi [24]
  Activity: 90%

## Cc1cc(C)c(C2C(=O)N3CC(C)(C)CN3C2=O)c(C)c1
Hordeum vulgare [1]
  Activity: 90%
Setaria faberi [2]
  Activity: 90%
Lolium perenne [3]
  Activity: 90%
Avena fatua [4]
  Activity: 90%
Alopecurus myosuroides [5]
  Activity: 100%
Triticum aestivum [6]
  Activity: 60%

## Cc1cc(C)c(C2C(=O)N3CCOCN3C2=O)c(C)c1 (stereo unspecified)
Setaria faberi [13]
  Activity: 90%
Lolium perenne [14]
  Activity: 90%
Alopecurus myosuroides [15]
  Activity: 40%
Triticum aestivum [16]
  Activity: 20%
Hordeum vulgare [17]
  Activity: 0%
Avena fatua [18]
  Activity: 90%

## Cc1cc(C)c(C2C(=O)N(C)N(C)C2=O)c(C)c1
Hordeum vulgare [1]
  Activity: 20%
Setaria faberi [2]
  Activity: 80%
Lolium perenne [3]
  Activity: 50%
Avena fatua [4]
  Activity: 40%
Alopecurus myosuroides [5]
  Activity: 40%
Triticum aestivum [6]
  Activity: 10%

## Cc1cc(C)c(C2C(=O)N3CCC(C)CCN3C2=O)c(C)c1
Hordeum vulgare [1]
  Activity: 60%
Setaria faberi [2]
  Activity: 60%
Lolium perenne [3]
  Activity: 80%
Avena fatua [4]
  Activity: 90%
Alopecurus myosuroides [5]
  Activity: 90%
Triticum aestivum [6]
  Activity: 20%

— ChEMBL document CHEMBL3045393, “Aryldiones incorporating a [1,4,5]oxadiazepane ring. Part I: Discovery of the novel cereal herbicide pinoxaden” (Bioorg Med Chem, 2009)
